Results: article PMC10458458, “Characterization of Anticancer Effects of the Analogs of DJ4, a Novel Selective Inhibitor of ROCK and MRCK Kinases” (Pharmaceuticals, 2023)

Experiments:
ROCK1 = ROCK1 (Homo sapiens, UniProt Q13464); assay: KINOMEscan competition binding assay; design: purchased DiscoverX Corporation (Lead Hunter Discovery Services, KINOMEscan); conditions: ROCK1, 10 µM
Description: (§1) To examine specificity of DJ4 to different human kinases, we performed a KINOMEscan profiling assay (DiscoverX, Fremont, CA, USA). The KINOMEscan assay consists of a panel of more than 480 kinases of different classes (TK/TKL/STE/CK1/AGC/CAMK/CMGC/others), including clinically relevant mutants, atypical kinases, lipid, and pathogen kinases. […] However, we also recognized the limitations of DJ4 that preclude its clinical development and the need for further optimization of the DJ4 chemotype.
(§2) The KINOMEscan®, in vitro competition binding assay, was performed by Lead Hunter Discovery Services (DiscoverX Corporation, Fremont, CA, USA) to determine the kinase specificity of DJ4, a novel kinase inhibitor [19, 44]. The KINOMEscan® panel consists of more than 480 kinases, including clinically relevant mutants, lipid, atypical, and pathogen kinases, plus a growing panel of activation-state specific assays. The primary screen was performed using a single concentration of 10 µM, and the results for DJ4 binding interactions are reported as percent of control (%Ctrl). The %Ctrl is calculated as follows: [(DJ4 signal-positive control signal)/(negative control DMSO signal-positive control signal)] x […]. The human kinome tree annotation for DJ4 is plotted with Reaction Biology’s Kinase Mapper and KinMap web interface tool http://kinhub.org/kinmap (accessed on 09 January 2023).

ROCK2 = ROCK2 (Homo sapiens, UniProt O75116); assay: KINOMEscan competition binding assay; design: purchased DiscoverX Corporation (Lead Hunter Discovery Services, KINOMEscan); conditions: ROCK2, 10 µM
Chain of ROCK2 (O75116 whole entry): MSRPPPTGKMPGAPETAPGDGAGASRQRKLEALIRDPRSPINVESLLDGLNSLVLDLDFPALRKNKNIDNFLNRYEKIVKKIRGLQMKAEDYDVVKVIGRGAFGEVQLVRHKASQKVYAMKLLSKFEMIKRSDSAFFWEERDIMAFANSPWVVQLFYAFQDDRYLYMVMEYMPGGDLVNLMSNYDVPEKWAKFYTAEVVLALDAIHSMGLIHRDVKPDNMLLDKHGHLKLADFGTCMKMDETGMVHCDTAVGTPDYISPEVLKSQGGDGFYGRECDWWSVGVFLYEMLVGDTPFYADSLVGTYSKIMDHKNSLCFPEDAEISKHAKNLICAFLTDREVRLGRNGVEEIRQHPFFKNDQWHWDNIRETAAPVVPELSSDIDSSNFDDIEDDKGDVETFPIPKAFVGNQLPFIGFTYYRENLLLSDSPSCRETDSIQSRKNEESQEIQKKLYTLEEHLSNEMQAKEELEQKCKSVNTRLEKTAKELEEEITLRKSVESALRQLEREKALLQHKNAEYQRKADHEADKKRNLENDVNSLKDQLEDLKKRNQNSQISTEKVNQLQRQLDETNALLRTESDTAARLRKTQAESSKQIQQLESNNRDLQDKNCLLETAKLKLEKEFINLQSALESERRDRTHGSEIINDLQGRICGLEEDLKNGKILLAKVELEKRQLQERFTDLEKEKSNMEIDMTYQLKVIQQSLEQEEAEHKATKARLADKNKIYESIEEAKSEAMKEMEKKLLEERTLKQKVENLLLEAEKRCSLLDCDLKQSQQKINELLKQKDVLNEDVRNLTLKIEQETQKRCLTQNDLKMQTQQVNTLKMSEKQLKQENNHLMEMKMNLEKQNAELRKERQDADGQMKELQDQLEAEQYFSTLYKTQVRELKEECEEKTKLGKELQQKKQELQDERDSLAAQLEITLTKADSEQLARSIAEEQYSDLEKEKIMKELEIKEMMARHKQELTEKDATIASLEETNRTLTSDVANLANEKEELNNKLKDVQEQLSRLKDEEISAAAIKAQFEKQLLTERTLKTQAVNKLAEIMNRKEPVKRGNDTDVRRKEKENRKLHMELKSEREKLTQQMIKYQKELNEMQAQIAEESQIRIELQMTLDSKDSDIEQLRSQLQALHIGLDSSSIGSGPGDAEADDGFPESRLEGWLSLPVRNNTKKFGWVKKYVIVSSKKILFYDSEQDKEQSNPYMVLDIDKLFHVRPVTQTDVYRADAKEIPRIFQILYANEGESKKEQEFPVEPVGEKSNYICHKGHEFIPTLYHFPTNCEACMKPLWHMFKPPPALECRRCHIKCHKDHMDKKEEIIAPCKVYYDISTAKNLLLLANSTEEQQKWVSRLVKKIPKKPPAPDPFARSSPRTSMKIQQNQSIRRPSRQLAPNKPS
Description: as §1, §2

A549 cells = assay: Western blot of cell cycle regulatory proteins; assay type: cell-based, human
Procedure: To better understand the anti-proliferative and pro-apoptotic effects of DJ4, expression of key proteins involved in proliferation and apoptosis were determined by a Western blot. A549 cells were treated with 2.5 µM and 10 µM concentrations for 24 h and 48 h. […] We also examined the expression of cyclin D3 and CDK4 (G1/S cell cycle checkpoint kinase).
For protein expression studies, MDA-MB-231 cells were treated with indicated concentrations of DJ4 for 24 h. Additionally, A549 cells were treated for 24 h and 48 h. Cell lysate preparation, protein estimation, and Western blot analysis was performed as per the procedure reported earlier. The blots were probed with cleaved caspase 7 (#9492, Cell Signaling, Danvers, MA, USA), GAPDH (#97166, Cell Signaling, Danvers, MA, USA), β-Actin (#3700, Cell Signaling, Danvers, MA, USA), pErk (#5726, Cell Signaling, Danvers, MA, USA), p21 ^WAF1/CIP1 (#60480, Cell Signaling, Danvers, MA, USA), cyclinD3 (#2936, Cell Signaling, Danvers, MA, USA), CDK4 (#23972, Cell Signaling, Danvers, MA, USA), cleaved PARP (#32563, Cell Signaling, Danvers, MA, USA), pan Erk (#23887, Cell Signaling, Danvers, MA, USA), pMYPT1 (Thr853, # SAB4503944, Millipore, Inc., Burlington, MA, USA) and PCNA (#sc-56, Santa Cruz Biotechnology, Inc., Dallas, TX, USA) antibodies.

[1] = system: MDA-MB-231 breast cancer cells; assay: Live/dead cell count (Muse); assay type: cell-based, human; conditions: 24 h
Procedure: Figure 2 DJ4 reduces cell survival and inhibits colony forming ability of the cancer cells. (A) Different NSCLC cells were plated in a 96-well plate to confluence and then treated for 72 h. Cytotoxicity was assessed by MTT assay. The error bars indicate SEM of triplicates. (B) To assess cytotoxicity of DJ4 in breast cancer cells, MDA-MB-231 cells were treated for 24 h with indicated concentrations of DJ4. Percentage of live cells were counted using Muse^TM Live/Dead reagent and analyzed by Muse^TM cell analyzer. Error bars indicate SEM. n = 2. * p < 0.05. (C) DJ4 inhibits colony forming ability of A549 cells treated for 48 h. After a 48-h treatment, cells were seeded with number of cells mentioned in the table and were allowed to grow and form colonies. At the end of 14 days, colonies were stained and counted. Percent surviving fraction was calculated. The figure is the representative of the replicates. (D) The data are summarized in the table and represent the average of three replicates. […]
MDA-MB-231 cells were treated for 24 h with 1 µM, 2.5 µM, 5 µM, and 10 µM concentrations of DJ4. […] Cell number and cell viability were analyzed using Muse^TM Cell Viability reagent and Muse^TM (Millipore, Inc. Burlington, MA, USA) cell analyzer as per the manufacturer’s instructions.

[2] = system: EGFR mutants (G718C, G719S, L858R, etc.); assay: KINOMEscan competition binding assay; design: species or system human; conditions: 10 µM
Description: as §1
(§3) Figure 5 The kinase selectivity profile for DJ4 assessed using KINOMEscan high-throughput assay. […] The red spots (ROCK/MRCK/CDK/FLT3/KIT) indicate kinases with high specificity to DJ4. (C,D) The % inhibition profile of DJ4 with wild-type (WT) and its clinically relevant kinase mutants of RET (rearranged during transfection) tyrosine kinase (C) and EGFR (epidermal growth factor receptor) protein kinase (D).
(§4) The KINOMEscan®, in vitro competition binding assay, was performed by Lead Hunter Discovery Services (DiscoverX Corporation, Fremont, CA, USA) to determine the kinase specificity of DJ4, a novel kinase inhibitor [19, 44]. […] The %Ctrl is calculated as follows: [(DJ4 signal-positive control signal)/(negative control DMSO signal-positive control signal)] x 00. […]

[3] = system: RET tyrosine kinase mutants (V804L/V804/M918T); assay: KINOMEscan competition binding assay; design: species or system human; conditions: 10 µM
Description: as §1, §3, §4

Chain of ROCK1 (Q13464 whole entry): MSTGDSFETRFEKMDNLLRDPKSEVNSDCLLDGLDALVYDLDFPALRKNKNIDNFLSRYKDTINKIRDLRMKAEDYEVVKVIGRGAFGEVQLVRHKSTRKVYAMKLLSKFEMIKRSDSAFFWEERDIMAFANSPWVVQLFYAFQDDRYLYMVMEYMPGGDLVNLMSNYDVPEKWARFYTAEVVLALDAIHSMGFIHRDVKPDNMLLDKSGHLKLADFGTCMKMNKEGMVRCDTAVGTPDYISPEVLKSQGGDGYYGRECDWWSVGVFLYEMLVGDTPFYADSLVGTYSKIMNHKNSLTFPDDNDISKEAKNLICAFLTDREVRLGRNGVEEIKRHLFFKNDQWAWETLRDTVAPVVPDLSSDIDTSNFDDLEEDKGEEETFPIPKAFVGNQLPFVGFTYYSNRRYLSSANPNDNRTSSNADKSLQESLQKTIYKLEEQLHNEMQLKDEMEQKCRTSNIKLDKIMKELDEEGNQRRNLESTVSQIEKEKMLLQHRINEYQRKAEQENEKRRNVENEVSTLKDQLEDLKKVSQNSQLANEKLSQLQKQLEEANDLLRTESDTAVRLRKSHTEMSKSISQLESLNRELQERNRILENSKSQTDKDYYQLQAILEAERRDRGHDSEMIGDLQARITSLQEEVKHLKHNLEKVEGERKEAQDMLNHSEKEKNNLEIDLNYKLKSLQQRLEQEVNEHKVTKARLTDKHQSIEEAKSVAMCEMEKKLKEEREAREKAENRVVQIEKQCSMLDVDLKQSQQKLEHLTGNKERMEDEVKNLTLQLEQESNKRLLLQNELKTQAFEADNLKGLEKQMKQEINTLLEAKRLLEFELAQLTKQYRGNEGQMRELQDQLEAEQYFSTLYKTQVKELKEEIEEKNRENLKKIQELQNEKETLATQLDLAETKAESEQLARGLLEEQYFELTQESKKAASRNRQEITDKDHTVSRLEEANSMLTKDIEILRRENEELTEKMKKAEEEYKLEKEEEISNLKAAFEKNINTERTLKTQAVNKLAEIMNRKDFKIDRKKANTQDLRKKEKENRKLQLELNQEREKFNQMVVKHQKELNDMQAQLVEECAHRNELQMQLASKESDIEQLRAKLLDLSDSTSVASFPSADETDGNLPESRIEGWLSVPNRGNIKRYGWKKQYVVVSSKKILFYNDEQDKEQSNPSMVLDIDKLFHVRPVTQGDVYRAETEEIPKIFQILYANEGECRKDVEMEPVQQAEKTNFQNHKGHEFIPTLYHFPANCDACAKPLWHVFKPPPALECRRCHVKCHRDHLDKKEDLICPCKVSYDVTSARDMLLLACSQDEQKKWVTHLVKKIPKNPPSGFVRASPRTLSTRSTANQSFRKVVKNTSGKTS

O=C1N/C(=N\CCc2ccccc2)S/C1=C/c1c[nH]c2ncccc12 [DJ4]
inhibition at 10 µM (ROCK1): > 98%
inhibition at 10 µM (ROCK2): > 98%
activation of Erk1/2 (phospho-Erk; pERK) (A549 cells; A549, 2.5 µM, 24 h): significantly induced activation
expression of CDK4 (A549 cells; A549, 2.5 µM, 24 h): upregulated
expression of cyclin D3 (A549 cells; A549, 2.5 µM, 24 h): upregulated
expression of p21 WAF1/CIP1 (A549 cells; A549, 2.5 µM, 24 h): upregulated
expression of p21 WAF1/CIP1, pERK, CDK4, and cyclin D3 (A549 cells; A549, 10 µM, 24 h and 48 h): decreased below vehicle treatment levels
cell death ([1]; MDA-MB-231, 1 µM): 29%
cell death ([1]; MDA-MB-231, 10 µM): 47%
inhibition of EGFR mutants relative to wild-type form [2]: differential inhibition
binding of RET mutants relative to wild-type [3]: stronger binding
